Patent publication US7572436B1, “Thionin as an antineoplastic and immunostimulant” (priority 2000, dated 2009)
Values joined by “and” are separate entries in the source; they are usually repeats but may differ in a detail not shown here. Equal values may be shown once. Where no end group is shown, it is not given here.

Assays:
Balb C splenocytes = assay: Mitogen assay (^3H-thymidine uptake), murine splenocytes; format: cell-based; settings: for CPM of tritiated thymidine incorporated: Balb C splenocytes
Source text: Murine spleen cells or human peripheral blood lymphocytes (PBLS) were obtained aseptically as described herein for use in the mitogen assay. When murine splenocytes were used, they were first treated with red cell lysing buffer (0.17 M Tris, 0.144 NH4C1, pH 7.2), washed in RPMI-10 (standard RPMI growth medium, Sigma Chemical Co., St. Louis, Mo., supplemented with 10% fetal bovine serum) and viable cells counted using Trypan Blue exclusion. Human PBLs were isolated from blood using HISTOPAQUE™-1077, a solution of FICOLL™ and sodium diatrizoate (Sigma Chemical Co., St. Louis, Mo.), and subsequent washings with RPMI-5 (RPMI supplemented with 5% fetal bovine serum) to remove platelets. Isolated lymphocytes were resuspended in RPMI-10 and a viable cell yield determined by Trypan Blue exclusion.
Drugs and known mitogenic controls were added in triplicate to a 96-well flat bottom microplate aseptically. The culture medium was RPMI-10. Splenocytes or human-lymphocytes were added at a concentration of 3-4×10^5 cells/well, to a final volume of 200 μl/well. The assay plate was incubated at 37° C. in a 5% CO2 humidified incubator. At 48-50 hours, ^3H-thymidine was added (1 μCi/well), and the plate was harvested approximately 16-18 hours later.
Mitogen assay microplates were harvested using an Inotech plate harvester (Inotech Biosystems International, Inc., Rockville, Md.). Counts per minute (cpm) per well were measured using the Berthold-Inotech Trace 96-plate reader (Inotech AT, Wohlen, Switzerland) and/or a scintillation counter (Packard Tri-carb 2100TR, Packard Instrument Co., Meriden, Conn.). Mitogenic activity was directly determined by comparing cpm levels to controls.
To test whether PT stimulates mitogen activity, splenocytes were incubated for two days with IL-2 (50 units/ml) or KLH (20 μg/ml) in conjunction with PT in the concentrations shown. Figures represent the radioactivity counts of tritiated thymidine taken up during a subsequent 20-hour incubation period of cells incubated with tritiated thymidine in RPMI.

[1] = system: T cells in the spleen and thymus; assay: FITC Thy-1.2 staining of T cells after ip injection; format: in vivo, Swiss Webster mice
Description: Using sterile technique the spleen or thymus was removed from a mouse euthanized by CO2 gas. The organ was teased apart to collect splenocytes or thymocytes, respectively. The cells were treated with red cell lysing buffer at 37° C. to remove the erthyrocytes, then washed several times in culture medium, RPMI-10. The cells were counted using Trypan Blue exclusion to determine viable cell yield (as described above) and resuspended in PBS/1% BSA/0.1% sodium azide buffer (pH 7.2) at 2×10^7 cells/ml.
To a microfuge tube, in ice, was added 100 μl of cell suspension (2×10^7 cells/ml). Five microliters of FcγR Block (CD16/CD32 Block; Pharmingen, San Diego, Calif.), diluted to 50 μg/ml with PBS/BSA/Azide Buffer, is added. The tube was gently mixed and kept on ice for three minutes.
One hundred microliters of Thy 1.2 FITC stain (10 μg/ml) were added and the tube was gently vortexed. Cells were stained for 30 minutes at 4° C., followed by centrifugation in a microfuge centrifuge at 4500 rpm for three minutes. The cells were washed twice with 500 μl ice-cold PBS/BSA/Azide buffer, and resuspended each time by gentle vortexing.
One hundred microliters of 1% paraformaldehyde (in PBS) were added to the cell pellet, and the cells were thoroughly mixed, then incubated 20 minutes at 4° C. The cells were then washed once with 500 μl of 2.19% glycine and resuspended in 500 μl of sterile PBS.
Fifteen microliters of the stained cell suspension were placed as two non-overlapping spots on a 1-mm thick glass slide that had been cleaned with ethanol. The cell droplets were allowed to dry without spreading or using a cover slip. The slides were air-dried in a hood, covered with aluminum foil to exclude light (in order to prevent photobleaching). If the slide was pre-cleaned and dried correctly, the droplets will naturally dry to a diameter of about 10 mm. The slides should be read within one week.
Cells were evaluated using a Zeiss oil-immersion microscope (UV-lamp, filter #47; Carl Zeiss Inc., Thornwood, N.Y.). Non-stained cells appeared medium-brown in color on a dark background. […] Partially stained cells that have a partial ring were counted separately. The percentage of non-stained, partially stained, and completely stained cells was determined. At least 200 cells per slide were scored, but usually about 300-400 cells were counted.
Data set out in Table 4, and discussed above, indicate that PT stimulates mitogen activity with murine splenocytes in vitro. This could come about through the action of activated macrophages on T cells by IL-1 production and antigen presentation to the T cells. […] T cells were detected with fluorescent-labeled (FITC) Thy 1.2 monoclonal antibody, which is a general antibody for all T cells. The cells were counted manually with a fluorescent microscope, and the data are divided into cells with no stain (no fluorescence), cells with partial staining (medium fluorescence), and cells with intense staining (high fluorescence). The mice were injected with the indicated amount of PT intraperitoneally and the animals sacrificed after three days to obtain the spleen and thymus.

[2] = Toxic effect of PT on mice in vivo (LD50); parameters: species or system mouse

Substance: Pyrularia thionin (KSCCRNTWARNCYNVCRLPGTISREICAKKCDCKIISGTTCPSDYPK; ends and bridges not checked; also: labeled with 125I) [PT]
- CPM of tritiated thymidine incorporated (Balb C splenocytes; 0.003 μg/ml, RPMI + IL-2 50 units/ml): 2,656 ± 110 CPM
- CPM of tritiated thymidine incorporated (Balb C splenocytes; 0.003 μg/ml, RPMI + KLH 20 μg/ml): 3,957 ± 134 CPM
- CPM of tritiated thymidine incorporated (Balb C splenocytes; 0.003 μg/ml, RPMI): 230 ± 6 CPM
- Cpm, standard mitogen assay (Balb C splenocytes; 0.01 μg/ml PT, GM-CSF (5 ng/ml)): 1,767 Cpm
- Cpm, standard mitogen assay (Balb C splenocytes; 0.01 μg/ml PT, GM-CSF (20 ng/ml)): 1,254 Cpm
- Cpm, standard mitogen assay (Balb C splenocytes; 0.01 μg/ml PT, no GM-CSF, BALB C spleen cells): 287 Cpm
- CPM of tritiated thymidine incorporated (Balb C splenocytes; 0.01 μg/ml, KLH 20 μg/ml): 3,737 ± 134 CPM
- CPM of tritiated thymidine incorporated (Balb C splenocytes; 0.03 μg/ml, RPMI + IL-2 50 units/ml): 3,017 ± 107 CPM
- CPM of tritiated thymidine incorporated (Balb C splenocytes; 0.03 μg/ml, RPMI + KLH 20 μg/ml): 4,162 ± 200 CPM
- CPM of tritiated thymidine incorporated (Balb C splenocytes; 0.03 μg/ml, RPMI): 269 ± 57 CPM
- Cpm, standard mitogen assay (Balb C splenocytes; 0.1 μg/ml PT, GM-CSF (20 ng/ml)): 1,549 Cpm
- CPM of tritiated thymidine incorporated (Balb C splenocytes; 0.1 μg/ml, RPMI + IL-2 50 units/ml): 2,910 ± 351 CPM
- CPM of tritiated thymidine incorporated (Balb C splenocytes; 0.1 μg/ml, RPMI + KLH 20 μg/ml): 4,254 ± 140 CPM and 4,284 ± 140 CPM
- CPM of tritiated thymidine incorporated (Balb C splenocytes; 0.1 μg/ml, RPMI): 268 ± 74 CPM
- CPM of tritiated thymidine incorporated (Balb C splenocytes; 0.3 μg/ml, RPMI + IL-2 50 units/ml): 2,395 ± 103 CPM
- CPM of tritiated thymidine incorporated (Balb C splenocytes; 0.3 μg/ml, RPMI + KLH 20 μg/ml): 3,985 ± 101 CPM and 3,980 ± 101 CPM
- CPM of tritiated thymidine incorporated (Balb C splenocytes; 0.3 μg/ml, RPMI): 142 ± 10 CPM and 147 ± 10 CPM
- CPM of tritiated thymidine incorporated (Balb C splenocytes; 1.0 μg/ml, RPMI + IL-2 50 units/ml): 951 ± 122 CPM
- CPM of tritiated thymidine incorporated (Balb C splenocytes; 1.0 μg/ml, RPMI + KLH 20 μg/ml): 1,742 ± 154 CPM and 1,747 ± 154 CPM
- CPM of tritiated thymidine incorporated (Balb C splenocytes; 1.0 μg/ml, RPMI): 107 ± 25 CPM
- number of T cells in the spleen and thymus ([1]; 10 μg of PT injected intraperitoneally into Swiss Webster mice): increase in the number of T cells in the spleen and thymus
- Splenic cells, Medium Fluor. ([1]; Experiment 1, 7 week male mice, 10 μg PT ip, after three days, none: 13): 24 ± 4.2%
- Splenic cells, High Fluor. ([1]; Experiment 1, 7 week male mice, 10 μg PT ip, after three days, none: 18): 30 ± 5.0%
- Splenic cells, No Fluor. ([1]; Experiment 1, 7 week male mice, 10 μg PT ip, after three days, none: 69): 46 ± 0.4%
- Splenic cells, Medium Fluor. ([1]; Experiment 2, 6 month male mice, 10 μg PT ip, after three days, none: 21): 36 ± 2.1%
- Splenic cells, High Fluor. ([1]; Experiment 2, 6 month male mice, 10 μg PT ip, after three days, none: 29): 32 ± 1.4%
- Splenic cells, No Fluor. ([1]; Experiment 2, 6 month male mice, 10 μg PT ip, after three days, none: 50): 32 ± 1.1%
- Splenic cells, Medium Fluor. ([1]; Experiment 3, 4 month females, 5 μg PT ip, after three days, none: 24): 28 ± 2.2%
- Thymus cells, High Fluor. ([1]; Experiment 3, 4 month females, 5 μg PT ip, after three days, none: 25): 39 ± 2.9%
- Splenic cells, High Fluor. ([1]; Experiment 3, 4 month females, 5 μg PT ip, after three days, none: 26): 31 ± 2.5%
- Thymus cells, Medium Fluor. ([1]; Experiment 3, 4 month females, 5 μg PT ip, after three days, none: 27): 29 ± 1.5%
- Thymus cells, No. Fluor. ([1]; Experiment 3, 4 month females, 5 μg PT ip, after three days, none: 48): 32 ± 4.4%
- Splenic cells, No Fluor. ([1]; Experiment 3, 4 month females, 5 μg PT ip, after three days, none: 50): 41 ± 3.5%
- LD50 ([2]; for a 20-gram mouse): 30 µg
- LD50 relative to the amount with maximal protective (immunostimulatory) effect ([2]; versus 3 μg PT): ten times greater
